In patent US20250074891A1 (Anaxis Pharma Pty Ltd., priority 2021, published 2025):
pIC50, pKd: −log10 of the molar value.

Experiments:
[1] = test system: U937 human histiocytic leukemia cell line; experiment: Cellular assay: inhibition of TSQ induced necroptosis (CellTitre-Glo); settings: Homo sapiens, U-937; U937 cells, TSQ cocktail, 48 hours, Table 38; read-out: Inhibition of TSQ-induced necroptosis (IC50 cell-based assay)
Outline: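 U937 cells (20,000/well) pre-dosed with compound (10-point, 1:3 from 36 μM, 0.3% DMSO), then TSQ (hTNF-Fc 100 ng/ml, Smac mimetic 500 nM, Q-VD-OPh 10 μM) for 48 h at 37 °C. Viability by CellTiter-Glo luminescence, normalised to DMSO (100%) and DMSO+TSQ (0%); IC50 from 4-parameter fit.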

U937 cells = experiment: Counter screen: cell viability without TSQ cocktail (off-target effect); parameters: species or system human; settings: Homo sapiens, U-937, Table 38, read-out: Off-target effect (IC50 cell-based assay)
Experimental: Counter screen: In parallel, all compounds were tested for their ability to affect cell viability. The same U937 cells were treated with compound in DMSO without the TSQ cocktail. This counter screen enabled evaluation of off-target effects. In this case, cell viability was measured by CelltiterGlo.

endogenous MLKL in U937 = endogenous MLKL in U937 (Homo sapiens (Human), UniProt Q8NB16); experiment: Degradation assay: degradation of endogenous MLKL in human cells (Western blot); settings: 24 h incubation, read-out: Degradation of endogenous MLKL in U937 (DC50 cell-based assay in μM)
endogenous MLKL in U937, sequence (Q8NB16 whole entry): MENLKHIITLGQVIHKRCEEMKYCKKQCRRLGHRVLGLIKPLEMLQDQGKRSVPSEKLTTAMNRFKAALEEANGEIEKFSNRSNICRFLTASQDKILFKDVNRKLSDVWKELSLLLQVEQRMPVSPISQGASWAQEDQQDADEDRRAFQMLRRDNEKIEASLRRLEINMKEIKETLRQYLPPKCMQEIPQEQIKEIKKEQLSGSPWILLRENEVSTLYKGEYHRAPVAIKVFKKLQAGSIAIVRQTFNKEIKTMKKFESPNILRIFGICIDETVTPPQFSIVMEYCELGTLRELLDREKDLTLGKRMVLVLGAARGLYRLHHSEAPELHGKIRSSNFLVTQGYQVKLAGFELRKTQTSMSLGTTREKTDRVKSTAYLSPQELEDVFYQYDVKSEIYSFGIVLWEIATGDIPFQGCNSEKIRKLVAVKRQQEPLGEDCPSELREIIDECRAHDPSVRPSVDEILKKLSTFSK
Experimental: DEGRADATION ASSAY: Screening Compounds Procedure to Evaluate the Activity of Compounds in Degrading Endogenous MLKL in Human Cell
The human monocyte cell line (U937) was seeded on the day of the experiment in a 24-well plate at a cell density of 5*10^5 cells per well in a volume of 0.5 mL per well.
The compound was diluted in DMSO with a starting concentration of 10 mM and titrated stepwise with a dilution of 1:5. 0.5 μL of the compound dilution was added to the appropriate well to achieve a final concentration of 10; 2; 0.4; 0.08 and 0.016 μM. A DMSO only well was included as control.
The cells were incubated for 24 h in the presence of the compound at 37° C. and 10% CO2.
After the 24 h incubation period, the medium was removed and cells washed with 0.5 mL PBS. The cells were then lysed directly in 60 μL of 1×SDS gel loading buffer.
The cell lysate was heat-denatured at […] for 10 min. 10 μL of lysate per well were run on 18-well 4-15% Criterion TGX stain free gels (BIO-RAD). The proteins were then transferred onto nitrocellulose membrane with a wet transfer protocol in the Criterion Blotter (BIO-RAD).
Membranes were blocked with 5% skim milk in TBST. Primary antibody against MLKL (clone 3H1, MABC604 Merck) was used at 1:2000 dilution in TBST with 1% BSA and left shaking over night at 4° C. After washes with TBST, the membranes were incubated with goat anti-rat IgG HRP-conjugated antibody (Southern Biotech) in 1% skim milk TBST at 1:10000 dilution for 1 h at room temperature. After TBST washes the bands were imaged on the ChemiDoc MP Imaging Systm (BIO-RAD) with Immobilion Western Chemiluminescent HRP Substrate Forte (Millipore). The loading control GAPDH was probed for with rabbit anti-GAPDH (CST 14C10) at 1:2000 dilution in 1% BSA TBST over night at 4° C. TBST washes were followed by incubation with goat anti-rabbit IgG HRP-conjugated antibody (Southern Biotech) in 1% skim milk TBST at 1:10000 dilution for 1 h at room temperature followed by TBST washes. The signal was detected as described above.
The band intensity was measured in the ImageLab Software (BIO-RAD) and the MLKL values adjusted for loading with GAPDH. The percentage of degradation was calculated by normalizing the compound treated values to the DMSO only control.

MLKL (full length) = MLKL (full length) (Homo sapiens (Human), UniProt Q8NB16); experiment: KINOMEscan binding assay, MLKL (full length); settings: Table 36
MLKL (full length), sequence (Q8NB16 whole entry): as above
Experimental: Kinase assays. For most assays, kinase-tagged T7 phage strains were grown in parallel in 24-well blocks in an E. coli host derived from the BL21 strain. E. coli were grown to log-phase and infected with T7 phage from a frozen stock (multiplicity of infection=0.4) and incubated with shaking at 32° C. until lysis (90-150 minutes).
The Hill Slope was set to −1.

| DC50 (endogenous MLKL in U937) [µM] | pKd (MLKL (full length)) | Structure (SMILES) | pIC50 [1] | pIC50 (U937 cells) |
| --- | --- | --- | --- | --- |
| 1 to 10 | 6.00 to 8.00 | Cc1ncsc1-c1ccc(CNC(=O)[C@@H]2C[C@@H](O)CN2C(=O)[C@@H](NC(=O)CCCCOC(=O)c2ccc(Nc3[nH]nc(-c4ccc(NS(=O)(=O)C(F)F)c(O[C@@H](C)c5ccc(F)cc5)c4)c3C(N)=O)nc2)C(C)(C)C)cc1 [Compound 1051, 4-{[(2S)-1-[(2S,4R)-4-hydroxy-2-({[4-(4-methyl-1,3-thiazol-5-yl)phenyl]methyl}carbamoyl)pyrrolidin-1-yl]-3,3-dimethyl-1-oxobutan-2-yl]carbamoyl}butyl 6-({4-carbamoyl-3-[4-(difluoromethanesulfonamido)-3-[(1S)-1-(4-fluorophenyl)ethoxy]phenyl]-1H-pyrazol-5-yl}amino)pyridine-3-carboxylate] | 5.00 to 6.00 | < 5.00 |
| < 1 | 6.00 to 8.00 | CCS(=O)(=O)Nc1ccc(-c2n[nH]c(Nc3ccc(C(=O)OCCCCC(=O)N[C@H](C(=O)N4C[C@H](O)C[C@H]4C(=O)NCc4ccc(-c5scnc5C)cc4)C(C)(C)C)cn3)c2C(N)=O)cc1O[C@@H](C)c1ccc(F)cc1 [Compound 1039, 4-{[(2S)-1-[(2S,4R)-4-hydroxy-2-({[4-(4-methyl-1,3-thiazol-5-yl)phenyl]methyl}carbamoyl)pyrrolidin-1-yl]-3,3-dimethyl-1-oxobutan-2-yl]carbamoyl}butyl 6-[(4-carbamoyl-3-{4-ethanesulfonamido-3-[(1S)-1-(4-fluorophenyl)ethoxy]phenyl}-1H-pyrazol-5-yl)amino]pyridine-3-carboxylate] | > 6.00 | < 5.00 |
| < 1 | > 8.00 | CCS(=O)(=O)Nc1ccc(-c2n[nH]c(Nc3ccc(C(=O)OCCCC(=O)N[C@H](C(=O)N4C[C@H](O)C[C@H]4C(=O)NCc4ccc(-c5scnc5C)cc4)C(C)(C)C)cn3)c2C(N)=O)cc1O[C@@H](C)c1ccc(F)cc1 [Compound 1043, 3-{[(2S)-1-[(2S,4R)-4-hydroxy-2-({[4-(4-methyl-1,3-thiazol-5-yl)phenyl]methyl}carbamoyl)pyrrolidin-1-yl]-3,3-dimethyl-1-oxobutan-2-yl]carbamoyl}propyl 6-[(4-carbamoyl-3-{4-ethanesulfonamido-3-[(1S)-1-(4-fluorophenyl)ethoxy]phenyl}-1H-pyrazol-5-yl)amino]pyridine-3-carboxylate] | > 6.00 | < 5.00 |
| 1 to 10 | > 8.00 | Cc1ncsc1-c1ccc(CNC(=O)[C@@H]2C[C@@H](O)CN2C(=O)[C@@H](NC(=O)CCCCCCCn2ccc(Nc3[nH]nc(-c4ccc(NS(=O)(=O)C(F)F)c(O[C@@H](C)c5ccc(F)cc5)c4)c3C(N)=O)n2)C(C)(C)C)cc1 [Compound 1042, 3-[4-(difluoromethanesulfonamido)-3-[(1S)-1-(4-fluorophenyl)ethoxy]phenyl]-5-{[1-(7-{[(2S)-1-[(2S,4R)-4-hydroxy-2-({[4-(4-methyl-1,3-thiazol-5-yl)phenyl]methyl}carbamoyl)pyrrolidin-1-yl]-3,3-dimethyl-1-oxobutan-2-yl]carbamoyl}heptyl)-1H-pyrazol-3-yl]amino}-1H-pyrazole-4-carboxamide] | > 6.00 | 5.00 to 6.00 |
| < 1 | 6.00 to 8.00 | CCS(=O)(=O)Nc1ccc(-c2n[nH]c(Nc3ccc(C(=O)OCCCCCCC(=O)N[C@H](C(=O)N4C[C@H](O)C[C@H]4C(=O)NCc4ccc(-c5scnc5C)cc4)C(C)(C)C)cn3)c2C(N)=O)cc1O[C@@H](C)c1ccc(F)cc1 [Compound 1058, 6-{[(2S)-1-[(2S,4R)-4-hydroxy-2-({[4-(4-methyl-1,3-thiazol-5-yl)phenyl]methyl}carbamoyl)pyrrolidin-1-yl]-3,3-dimethyl-1-oxobutan-2-yl]carbamoyl}hexyl 6-[(4-carbamoyl-3-{4-ethanesulfonamido-3-[(1S)-1-(4-fluorophenyl)ethoxy]phenyl}-1H-pyrazol-5-yl)amino]pyridine-3-carboxylate] | > 6.00 | < 5.00 |
| < 1 | > 8.00 | Cc1ncsc1-c1ccc(CNC(=O)[C@@H]2C[C@@H](O)CN2C(=O)[C@@H](NC(=O)c2ccc(Cn3ccc(Nc4[nH]nc(-c5ccc(NS(=O)(=O)C(F)F)c(O[C@@H](C)c6ccc(F)cc6)c5)c4C(N)=O)n3)cc2)C(C)(C)C)cc1 [Compound 1045, 3-[4-(difluoromethanesulfonamido)-3-[(1S)-1-(4-fluorophenyl)ethoxy]phenyl]-5-({1-[(4-{[(2S)-1-[(2S,4R)-4-hydroxy-2-({[4-(4-methyl-1,3-thiazol-5-yl)phenyl]methyl}carbamoyl)pyrrolidin-1-yl]-3,3-dimethyl-1-oxobutan-2-yl]carbamoyl}phenyl)methyl]-1H-pyrazol-3-yl}amino)-1H-pyrazole-4-carboxamide] | > 6.00 | < 5.00 |

| Structure (SMILES) | DC50 (endogenous MLKL in U937) [µM] | pKd (MLKL (full length)) | pIC50 [1] | pIC50 (U937 cells) |
| --- | --- | --- | --- | --- |
| Cc1ncsc1-c1ccc(CNC(=O)[C@@H]2C[C@@H](O)CN2C(=O)[C@@H](NC(=O)CCCCOc2ccc(Nc3[nH]nc(-c4ccc(NS(=O)(=O)C(F)F)cc4)c3C(N)=O)nc2)C(C)(C)C)cc1 [Compound 1021, 3-[4-(difluoromethanesulfonamido)phenyl]-5-{[5-(4-{[(2S)-1-[(2S,4R)-4-hydroxy-2-({[4-(4-methyl-1,3-thiazol-5-yl)phenyl]methyl}carbamoyl)pyrrolidin-1-yl]-3,3-dimethyl-1-oxobutan-2-yl]carbamoyl}butoxy)pyridin-2-yl]amino}-1H-pyrazole-4-carboxamide] | 1 to 10 | > 8.00 | > 6.00 | < 5.00 |
| Cc1ncsc1-c1ccc(CNC(=O)[C@@H]2C[C@@H](O)CN2C(=O)[C@@H](NC(=O)CCCCOc2ccc(Nc3[nH]nc(-c4ccc(NS(=O)(=O)CC(F)(F)F)cc4)c3C(N)=O)nc2)C(C)(C)C)cc1 [Compound 1020, 5-{[5-(4-{[(2S)-1-[(2S,4R)-4-hydroxy-2-({[4-(4-methyl-1,3-thiazol-5-yl)phenyl]methyl}carbamoyl)pyrrolidin-1-yl]-3,3-dimethyl-1-oxobutan-2-yl]carbamoyl}butoxy)pyridin-2-yl]amino}-3-[4-(2,2,2-trifluoroethanesulfonamido)phenyl]-1H-pyrazole-4-carboxamide] | < 1 | > 8.00 | > 6.00 | < 5.00 |
| Cc1ncsc1-c1ccc(CNC(=O)[C@@H]2C[C@@H](O)CN2C(=O)[C@@H](NC(=O)CCCCOc2cc(Nc3[nH]nc(-c4ccc(NS(=O)(=O)CC(F)(F)F)cc4)c3C(N)=O)ccn2)C(C)(C)C)cc1 [Compound 1016, 5-{[2-(4-{[(2S)-1-[(2S,4R)-4-hydroxy-2-({[4-(4-methyl-1,3-thiazol-5-yl)phenyl]methyl}carbamoyl)pyrrolidin-1-yl]-3,3-dimethyl-1-oxobutan-2-yl]carbamoyl}butoxy)pyridin-4-yl]amino}-3-[4-(2,2,2-trifluoroethanesulfonamido)phenyl]-1H-pyrazole-4-carboxamide] | 1 to 10 | > 8.00 | 5.00 to 6.00 | < 5.00 |
| CCS(=O)(=O)Nc1ccc(-c2n[nH]c(Nc3ccc(OCCCCC(=O)N[C@H](C(=O)N4C[C@H](O)C[C@H]4C(=O)NCc4ccc(-c5scnc5C)cc4)C(C)(C)C)cn3)c2C(N)=O)cc1 [Compound 1019, 3-(4-ethanesulfonamidophenyl)-5-{[5-(4-{[(2S)-1-[(2S,4R)-4-hydroxy-2-({[4-(4-methyl-1,3-thiazol-5-yl)phenyl]methyl}carbamoyl)pyrrolidin-1-yl]-3,3-dimethyl-1-oxobutan-2-yl]carbamoyl}butoxy)pyridin-2-yl]amino}-1H-pyrazole-4-carboxamide] | < 1 | > 8.00 | > 6.00 | < 5.00 |
